{"source": "patent US20040082606A1", "about": "“Excitatory amino acid receptor antagonists” (priority 2003, published 2004)", "system": "dural protein extravasation", "assay": "Animal model of dural protein extravasation (electrical stimulation of the trigeminal ganglion, Evans Blue)", "assay_type": "in vivo", "details": "administered orally to rats", "experimental": "The following animal model may be employed to determine the ability of the compounds of Formula I or Formula Ia to inhibit protein extravasation, an exemplary functional assay of the neuronal mechanism of migraine.\nA. Harlan Sprague-Dawley rats (225-325 g) or guinea pigs from Charles River Laboratories (225-325 g) are anesthetized with sodium pentobarbital intraperitoneally (65 mg/kg or 45 mg/kg respectively) and are placed in a stereotaxic frame David Kopf Instruments) with the incisor bar set at −3.5 mm for rats or −4.0 mm for guinea pigs. Following a midline sagital scalp incision, two pairs of bilateral holes are drilled through the skull (6 mm posterially, 2.0 and 4.0 mm laterally in rats; 4 mm posteriorly and 3.2 and 5.2 mm laterally in guinea pigs, all coordinates referenced to bregma). […]\nD. A fluorescence microscope (Zeiss) equipped with a grating monchromator and a spectrophotometer is used to quantify the amount of Evans Blue dye in each sample. An excitation wavelength of approximately 535 nm is utilized and the emission intensity at 600 nm is determined. […] This facilitates the computer-controlled movement of the stage with fluorescence measurements at 25 points ([…]) on each dural sample. The mean and standard deviation of the measurements are determined by the computer. […]"}
{"smiles": "CCOC(=O)[C@@H]1C[C@H]2C[C@@H](CN3CC(F)(F)C[C@H]3C(=O)OCC)CC[C@H]2CN1.Cl.Cl", "note": "[3S,4aR,6S,8aR Ethyl 6-(((2S)-2-Ethoxycarbonyl)4,4-difluoropyrrolidinyl)methyl)-1,2,3,4,4a,5,6,7,8,8a-decahydroisoquinoline-3-carboxylate.dihydrochloride]", "values": [{"measurement": "ID100 (dose that inhibits the extravasation by 100%)", "value": "approximately 0.01 ng/Kg"}]}
